Results reported in publication PMC11999338, “Factor XI localization in human deep venous thrombus and function of activated factor XI on venous thrombus formation and hemostasis” (Research and Practice in Thrombosis and Haemostasis, 2025).

Tested on: skin bleeding
Assay: Rabbit skin bleeding time and volume
Type: in vivo
Settings: rabbits; for bleeding time / bleeding volume: skin incision 90 minutes after oral administration, ONO-1600586 5, 15, 50 mg/kg, rivaroxaban 1.5, 5, 15 mg/kg
Protocol: The protocols of the venous thrombosis and skin bleeding models in rabbits were as follows (Supplementary Figure 2). First, fasting rabbits were orally administered a solvent as a control (n = 10), a FXIa inhibitor (ONO-1600586, 5 mg/kg, n = 10; 15 mg/kg, n = 10; and 50 mg/kg, n = 11), or a FXa inhibitor (rivaroxaban, 1.5 mg/kg, 5 mg/kg, and 15 mg/kg, n = 10 each) using a Nelaton catheter of 5 mm diameter (IZUMO Health Co, Ltd) 90 minutes before thrombus formation. […] Additional anesthesia with one-third amount of the above-mentioned mixture of drugs was administered 80 minutes after the first injection, and all surgical operations proceeded under aseptic conditions. Ninety minutes after administering the solvent, rivaroxaban (1.5, 5, and 15 mg/kg), and ONO-1600586 (5, 15, and 50 mg/kg), skin bleeding was induced using 2 lines of 3 cm length incisions on both legs of the rabbit. Next, wet Kimwipes (Kimberly-Clark Corp) were placed on the injured lesions, and the bleeding time was measured. To measure the bleeding volume, we collected the Kimwipes into a falcon tube filled with 20 mL of saline each, 1 to 2 minutes for 30 minutes, and then removed the Kimwipes. The collected blood was centrifuged at 900 × g for 5 minutes at room temperature, and the supernatant was discarded. One milliliter of distilled water was added to the pellet and then hemolyzed. The bleeding volume was estimated using a spectrophotometer at 540 nm (SpectraMax 190 Microplate Reader, Molecular Devices, LLC). A standard curve was generated through the sequential dilution of rabbit blood. Finally, the number of erythrocytes was measured using a hematology analyzer (XP-300, Sysmex).

- bleeding time compared with the control (15 mg/kg oral): significantly prolonged
- bleeding volume compared with the control (15 mg/kg oral): increased
- bleeding time: prolonged bleeding time
- bleeding time (listed as Rivaroxaban): dose-dependently prolonged
- bleeding volume (listed as Rivaroxaban): increased
SMILES: O=C(NC[C@H]1CN(c2ccc(N3CCOCC3=O)cc2)C(=O)O1)c1ccc(Cl)s1 [rivaroxaban]
- bleeding volume: increased bleeding volume dose-dependently
